{"source": "paper PMC7804859", "about": "“A metabolically stable apelin-17 analog decreases AVP-induced antidiuresis and improves hyponatremia” (Nature Communications, 2021)", "key": {"[1]": {"target": "T1, rat apelin-R (Rattus norvegicus, UniProt Q9JHG3)", "T1 construct": "expressed in transfected cells; membrane preparation", "T1 sequence (Q9JHG3 1-377)": "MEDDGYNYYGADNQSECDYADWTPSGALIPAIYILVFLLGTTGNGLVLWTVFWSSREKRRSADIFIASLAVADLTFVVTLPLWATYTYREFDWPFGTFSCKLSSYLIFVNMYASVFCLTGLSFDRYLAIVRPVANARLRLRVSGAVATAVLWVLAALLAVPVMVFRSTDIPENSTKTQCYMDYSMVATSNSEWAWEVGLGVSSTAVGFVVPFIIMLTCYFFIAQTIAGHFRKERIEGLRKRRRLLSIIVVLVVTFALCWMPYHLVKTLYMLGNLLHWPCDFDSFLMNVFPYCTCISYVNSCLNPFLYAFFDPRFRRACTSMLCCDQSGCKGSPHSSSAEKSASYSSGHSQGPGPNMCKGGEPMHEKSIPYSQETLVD", "test": "Radioligand binding ([125I]-pE13F) to membranes from CHO cells stably expressing rat apelin-R-EGFP", "conditions": "1 h 20 °C, pH 7.4, new batch of LIT01-196", "description": "Membranes from CHO cells stably expressing rat apelin-R-EGFP were prepared as previously described[23]. […] The reaction was stopped by adding ice-cold binding buffer and filtering through Whatman GF/C filters. The filters were washed and radioactivity was counted with a Wizard 1470 Wallac gamma counter (PerkinElmer, Turku, Finland)."}, "[2]": {"target": "T2, human V2-R (Homo sapiens, UniProt P30518)", "T2 construct": "host or cells: HEK-293T cells, transient transfection", "T2 sequence (P30518 whole entry)": "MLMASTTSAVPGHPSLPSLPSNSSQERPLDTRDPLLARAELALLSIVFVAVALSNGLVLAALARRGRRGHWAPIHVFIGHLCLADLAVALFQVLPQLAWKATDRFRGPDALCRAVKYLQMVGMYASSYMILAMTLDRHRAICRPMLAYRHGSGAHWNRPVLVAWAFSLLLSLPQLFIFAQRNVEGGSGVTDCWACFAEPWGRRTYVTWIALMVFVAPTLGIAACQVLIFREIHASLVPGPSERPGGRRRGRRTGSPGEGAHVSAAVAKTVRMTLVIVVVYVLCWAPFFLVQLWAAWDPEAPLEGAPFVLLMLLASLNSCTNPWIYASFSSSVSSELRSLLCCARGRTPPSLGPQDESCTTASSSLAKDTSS", "test": "cAMP production in HEK-293 T cells expressing the human V2-R (HTRF)", "assay_type": "cell-based", "conditions": "HEK-293 T cells, human V2-R", "procedure": "152 Supplementary Methods\n154 We quantified cAMP production with the cAMP dynamic 2 assay kit (Cisbio Bioassays,\n155 Codolet, France), which is based on homogeneous time-resolved fluorescence (HTRF)\n156 technology, as previously described 1. […]\nFor cells expressing the V2-R, HEK-\n160 293T cells were transiently transfected with the human V2-R (cDNA Resource Center), after\n161 48h, 4000 cells/well were added to white 384-well optiplates and stimulated either with 5\nCells were then lysed, and\n165 cAMP levels were determined in accordance with the kit manufacturer’s instructions.\n166 Stimulation was performed in stimulation buffer-IBMX (SBI) (Hank’s balanced salt solution\n167 (HBSS-Life Technology), 5 mmol/l Hepes, 0.1% BSA stabilizer (Perkin Elmer), 1 mmol/l\n168 isobutylmethylxanthine (IBMX, Sigma Aldrich, pH 7.4)). […]"}, "[3]": {"system": "rat outer medullary collecting ducts (OMCDs)", "test": "dDAVP-induced cAMP production in microdissected rat outer medullary collecting ducts", "assay_type": "cell-based", "description": "The left kidney of male rats was prepared for nephron microdissection, as previously described[51]. Pieces of OMCDs were isolated under a stereomicroscope.\n180 37°C. Then the media was removed and 100 µl of lysis buffer (Cisbio Bioassays, Codolet,\n181 France) was added to Transwell filter and plate was incubated at 20°C for 2 hours. Cell\n183 384-well plates (Perkin Elmer) according to manufacturer’s instructions (Cisbio Bioassays,\n184 Codolet, France). Cyclic AMP levels were measured in microdissected OMCDs by the same\n186 per mm tubular length and per 10 min incubation time at 37°C."}, "[4]": {"test": "Brain apelin-immunoreactive levels in mice (RIA)", "assay_type": "in vivo, mouse", "procedure": "Then cells were treated with 10\nResults are expressed in femtomoles of cAMP produced\n(§1) 187 Apelin radioimmunoassay\n(§2) 189 until use for apelin RIA.\n(§3) The supernatants were collected and\n(§4) The samples were dried and dissolved in\n(§5) 201 centrifuged (17000 x g, 4°C, 20 min). The supernatant (4 ml) was collected, and mixed with\n(§6) The columns were then treated as described in\n(§7) Samples (0.1ml) w ere mixed with 125I-\n(§8) 212 used this radioligand instead of [Glp65, Nle75, Tyr77] [125I]-apelin13 since the substitution of\n(§9) 214 derivatives as described previously by 3,4.\n(§10) 216 incubated for 10 min at room temperature.\n(§11) This antiserum identified the apelin present in the\nMost of the apelin in human plasma was […]"}, "[5]": {"system": "control rats", "test": "Plasma AVP and apelin-IR levels in control rats (RIA)", "assay_type": "in vivo, rat", "set-up": "Apelin / AVP: unit not given here", "procedure": "as §1, §2, §3, §4, §5, §6, §7, §8, §9, §10, §11\n(§12) Most of the apelin in human plasma was\n(§13) 252 TechMedILL platfor m (Illkirch) reviewed and approved by the agriculture ministry regulating\n(§14) 256 Male Sprague-Dawley rats were killed by decapitation, and trunk blood was collected on ice\n(§15) 257 (into 50 µl of 0.3M EDTA (pH 7.4) per 1 ml of blood). Samples were centrifuged (2,600 x g,\n(§16) 258 4°C, 20 min), and the resulting plasma was split into 500 µl aliquots, to which we added 168\n(§17) 259 µl of 3N HCl before storage at -80°C. The AVP RIA was performed as previously described\n(§18) 260 5, using a specific AVP-[Arg8] antibody (final dilution, 1/4.5) and [125I]-(Tyr2Arg8)-AVP\n(§19) 261 (2200 Ci/mmol, Perkin-Elmer, Billerica, MA; 15000 dpm) as a tracer. […]"}, "[6]": {"system": "kidneys of normonatremic Sprague-Dawley rats", "test": "Kidney histology after 4 days of s.c. administration in rats", "assay_type": "in vivo, rat", "set-up": "Tubular injury score: scale not given here", "procedure": "278 Kidneys were fixed in paraformaldehyde 4% overnight and processed for paraffin embedding.\n279 Sections of 4 μm thickness were made and stained with the periodic acid-Schiff (PAS)\n280 reagent and counterstained with hematoxylin. Histological analyzes were performed by a\n281 trained nephrologist (AF), blinded of the treatment group. Tubular injury score was scored\n283 vacuolization, epithelial cell shedding, and denuded tubular basement membrane, as follows:\n285 calculated from twenty viewing fields selected randomly from the outer medulla and\n286 corticomedullary junction and were examined at ×400 magnification. […]"}, "[7]": {"system": "hyponatremic rats", "test": "Plasma AVP and apelin-IR levels in hyponatremic rats (RIA)", "assay_type": "in vivo, rat", "procedure": "as §1, §2, §3, §4, §5, §6, §7, §8, §9, §10, §11, §12, §13, §14, §15, §16, §17, §18, §19"}, "[8]": {"system": "apelin-R and V2-R", "test": "dDAVP-induced cAMP production in CHO cells stably expressing both the apelin-R and the V2-R", "assay_type": "cell-based"}}, "note": "Where “and” joins values, the source holds several entries; their conditions need not be identical. Equal entries are not always repeated.", "data": [{"compound": "CSCC[C@H](NC(=O)[C@@H]1CCCN1C(=O)CNC(=O)[C@H](CCCCN)NC(=O)[C@H](Cc1c[nH]cn1)NC(=O)[C@H](CO)NC(=O)[C@H](CC(C)C)NC(=O)[C@H](CCCNC(=N)N)NC(=O)[C@@H]1CCCN1C(=O)[C@H](CCCNC(=N)N)NC(=O)[C@H](CCC(N)=O)NC(=O)[C@H](CCCNC(=N)N)NC(=O)[C@H](CCCNC(=N)N)NC(=O)[C@H](Cc1ccccc1)NC(=O)[C@H](CCCCN)NC(=O)CCC(F)(F)C(F)(F)C(F)(F)C(F)(F)C(F)(F)C(F)(F)C(F)(F)C(F)(F)F)C(=O)N1CCC[C@H]1C(=O)N[C@@H](Cc1ccccc1)C(=O)O", "note": "[LIT01-196]", "values": [{"measurement": "Ki", "setting": "[1]", "value": "0.34 ± 0.05", "unit": "nM"}, {"measurement": "effect on cAMP production induced by 1 µmol/l AVP", "setting": "[2]; 1 µmol/l compound, 30 min 37 °C", "value": "did not modify"}, {"measurement": "effect on basal cAMP production", "setting": "[2]; compound alone at 1 µmol/l", "value": "did not modify"}, {"measurement": "inhibition of dDAVP-induced cAMP production in OMCDs", "setting": "[3]; co-application with dDAVP 0.1 nmol/l, increasing concentrations 50 nmol/l to 50 µmol/l", "value": 41, "unit": "%"}, {"measurement": "cAMP production, value (Fig 2E)", "setting": "[3]; peptide 5.10-5M, experiment 1", "value": 50}, {"measurement": "cAMP production, value (Fig 2E)", "setting": "[3]; peptide 5.10-5M, experiment 2", "value": 47}, {"measurement": "cAMP production, value (Fig 2E)", "setting": "[3]; peptide 5.10-5M, experiment 3", "value": 56}, {"measurement": "cAMP production, value (Fig 2E)", "setting": "[3]; peptide 5.10-5M, experiment 4", "value": 50}, {"measurement": "cAMP production, value (Fig 2E)", "setting": "[3]; peptide 5.10-5M, experiment 5", "value": 48}, {"measurement": "cAMP production, value (Fig 2E)", "setting": "[3]; peptide 5.10-5M, experiment 6", "value": 49}, {"measurement": "cAMP production, value (Fig 2E)", "setting": "[3]; peptide 5.10-7M, experiment 1", "value": 55}, {"measurement": "cAMP production, value (Fig 2E)", "setting": "[3]; peptide 5.10-7M, experiment 2", "value": 58}, {"measurement": "cAMP production, value (Fig 2E)", "setting": "[3]; peptide 5.10-7M, experiment 3", "value": 52}, {"measurement": "cAMP production, value (Fig 2E)", "setting": "[3]; peptide 5.10-7M, experiment 4", "value": 54}, {"measurement": "cAMP production, value (Fig 2E)", "setting": "[3]; peptide 5.10-7M, experiment 5", "value": 56}, {"measurement": "cAMP production, value (Fig 2E)", "setting": "[3]; peptide 5.10-7M, experiment 6", "value": 53}, {"measurement": "cAMP production, value (Fig 2E)", "setting": "[3]; peptide 5.10-8M, experiment 1", "value": 85}, {"measurement": "cAMP production, value (Fig 2E)", "setting": "[3]; peptide 5.10-8M, experiment 2", "value": 87}, {"measurement": "cAMP production, value (Fig 2E)", "setting": "[3]; peptide 5.10-8M, experiment 3", "value": 90}, {"measurement": "cAMP production, value (Fig 2E)", "setting": "[3]; peptide 5.10-8M, experiment 4", "value": 83}, {"measurement": "cAMP production, value (Fig 2E)", "setting": "[3]; peptide 5.10-8M, experiment 5", "value": 88}, {"measurement": "cAMP production, value (Fig 2E)", "setting": "[3]; peptide 5.10-8M, experiment 6", "value": 81}, {"measurement": "apelin.brain", "setting": "[4]; LIT01-196 900 nmol/kg, individual animals (Fig. S2C source data)", "value": "0.257 and 0.271 and 0.513 and 0.58"}, {"measurement": "apelin-IR levels in the brain", "setting": "[4]; mice, 30 min after s.c. 900 nmol/kg, saline 0.391 ± 0.045, n = 5", "value": "0.440 ± 0.073", "unit": "pmol/brain"}, {"measurement": "plasma apelin-IR levels, higher than in control rats", "setting": "[5]; 3 h after 900 nmol/kg s.c.", "value": 185, "unit": "%"}, {"measurement": "plasma apelin/AVP ratio, higher than in control rats", "setting": "[5]; 3 h after 900 nmol/kg s.c.", "value": 105, "unit": "%"}, {"measurement": "plasma AVP levels, higher than in animals receiving saline", "setting": "[5]; 3 h after s.c., tolvaptan 6700 nmol/kg, LIT01-196 900 nmol/kg", "value": 37, "unit": "%"}, {"measurement": "AVP", "setting": "[5]; plasma AVP, LIT01-196 900 nmol/kg SC, individual animals (Fig. S4F source data)", "value": "22.8083 and 24.884 and 19.0278 and 19.6598 and 20.1271 and 24.6505 and 19.9264"}, {"measurement": "Apelin", "setting": "[5]; plasma apelin-IR, LIT01-196 900 nmol/kg SC, individual animals (Fig. S4E source data)", "value": "1622 and 1536 and 1658 and 938 and 943 and 1033 and 1679"}, {"measurement": "apelinAVPratio", "setting": "[5]; plasma apelin/AVP ratio, LIT01-196 900 nmol/kg SC, individual animals (Fig. S4G source data)", "value": "71.1145 and 61.7264 and 87.1356 and 47.7116 and 46.8522 and 41.9059 and 84.2603"}, {"measurement": "Tubular injury score", "setting": "[6]; 900 nmol/kg SC, individual animals (Fig. S5C source data)", "value": "0.105 and 0.1 and 0.05 and 0.15 and 0"}, {"measurement": "Glomerular injury score", "setting": "[6]; 900 nmol/kg SC, individual animals (Fig. S5D source data)", "value": "0.09091 and 0.1053 and 0.1429 and 0.04762 and 0.05"}, {"measurement": "histological analysis of the kidneys", "setting": "[6]; 900 nmol/kg s.c. for 4 consecutive days, rats", "value": "did not reveal any abnormality"}, {"measurement": "plasma AVP levels versus AVP-treated rats receiving saline", "setting": "[7]; 900 nmol/kg s.c., 3 h", "value": "No significant difference"}, {"measurement": "increase in plasma apelin-IR/AVP ratio relative to saline", "setting": "[7]; 900 nmol/kg s.c., 3 h, hyponatremic rats", "value": 518, "unit": "%"}, {"measurement": "plasma apelin-IR material levels, higher than AVP + saline", "setting": "[7]; 900 nmol/kg s.c., 3 h, n = 5", "value": 372, "unit": "%"}, {"measurement": "Plasma AVP", "setting": "[7]; AVP 30 ng/h rats, LIT01-196 900 nmol/kg SC, individual animals (Fig. 6A source data)", "value": "26.2192 and 47.0941 and 28.2654 and 46.4247 and 26.8381"}, {"measurement": "Plasma apelin", "setting": "[7]; AVP 30 ng/h rats, LIT01-196 900 nmol/kg SC, individual animals (Fig. 6B source data)", "value": "2578 and 2160 and 2508 and 1740 and 2599"}, {"measurement": "Apelin to AVP ratio", "setting": "[7]; AVP 30 ng/h rats, LIT01-196 900 nmol/kg SC, individual animals (Fig. 6C source data)", "value": "98.309 and 45.8759 and 88.7295 and 37.4882 and 96.8538"}, {"measurement": "dDAVP-induced cAMP production", "setting": "[8]", "value": "dose-dependently inhibits"}]}]}
